Measurements as given in paper PMC7450057, “Enhancing intracellular accumulation and target engagement of PROTACs with reversible covalent chemistry” (Nature Communications, 2020).
Values joined by “and” are separate entries in the source; they are usually repeats but may differ in a detail not shown here. Equal entries are not always repeated.

Columns and labels:
NanoLuc-CRBN fusion = target: T1, NanoLuc-CRBN fusion (Homo sapiens, UniProt Q96SW2); assay: NanoBRET CRBN in-cell target engagement assay; format: cell-based; details: for NanoBRET(%): Figure 3h, replicates; for IC50: HEK-293 cells, CRBN tracer 0.5 µM, triplicates, read-out: CRBN target engagement IC50,TE
T1 construct: host or cells: HEK 293T/17
T1 sequence (Q96SW2 whole entry, the tested form may be a part): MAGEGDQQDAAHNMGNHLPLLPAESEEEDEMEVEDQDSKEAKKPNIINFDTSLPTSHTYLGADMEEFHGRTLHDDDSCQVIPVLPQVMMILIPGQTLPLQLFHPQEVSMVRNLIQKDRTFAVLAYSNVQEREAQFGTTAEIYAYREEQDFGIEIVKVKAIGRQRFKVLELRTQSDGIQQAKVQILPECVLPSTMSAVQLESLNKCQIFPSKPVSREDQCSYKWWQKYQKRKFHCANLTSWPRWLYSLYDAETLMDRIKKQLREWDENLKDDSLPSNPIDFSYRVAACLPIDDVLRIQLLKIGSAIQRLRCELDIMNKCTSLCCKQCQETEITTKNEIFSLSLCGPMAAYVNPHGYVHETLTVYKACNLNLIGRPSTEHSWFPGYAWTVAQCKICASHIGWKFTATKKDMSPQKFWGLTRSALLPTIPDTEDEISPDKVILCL
T1 sequence (Q16531 whole entry partner, the tested form may be a part): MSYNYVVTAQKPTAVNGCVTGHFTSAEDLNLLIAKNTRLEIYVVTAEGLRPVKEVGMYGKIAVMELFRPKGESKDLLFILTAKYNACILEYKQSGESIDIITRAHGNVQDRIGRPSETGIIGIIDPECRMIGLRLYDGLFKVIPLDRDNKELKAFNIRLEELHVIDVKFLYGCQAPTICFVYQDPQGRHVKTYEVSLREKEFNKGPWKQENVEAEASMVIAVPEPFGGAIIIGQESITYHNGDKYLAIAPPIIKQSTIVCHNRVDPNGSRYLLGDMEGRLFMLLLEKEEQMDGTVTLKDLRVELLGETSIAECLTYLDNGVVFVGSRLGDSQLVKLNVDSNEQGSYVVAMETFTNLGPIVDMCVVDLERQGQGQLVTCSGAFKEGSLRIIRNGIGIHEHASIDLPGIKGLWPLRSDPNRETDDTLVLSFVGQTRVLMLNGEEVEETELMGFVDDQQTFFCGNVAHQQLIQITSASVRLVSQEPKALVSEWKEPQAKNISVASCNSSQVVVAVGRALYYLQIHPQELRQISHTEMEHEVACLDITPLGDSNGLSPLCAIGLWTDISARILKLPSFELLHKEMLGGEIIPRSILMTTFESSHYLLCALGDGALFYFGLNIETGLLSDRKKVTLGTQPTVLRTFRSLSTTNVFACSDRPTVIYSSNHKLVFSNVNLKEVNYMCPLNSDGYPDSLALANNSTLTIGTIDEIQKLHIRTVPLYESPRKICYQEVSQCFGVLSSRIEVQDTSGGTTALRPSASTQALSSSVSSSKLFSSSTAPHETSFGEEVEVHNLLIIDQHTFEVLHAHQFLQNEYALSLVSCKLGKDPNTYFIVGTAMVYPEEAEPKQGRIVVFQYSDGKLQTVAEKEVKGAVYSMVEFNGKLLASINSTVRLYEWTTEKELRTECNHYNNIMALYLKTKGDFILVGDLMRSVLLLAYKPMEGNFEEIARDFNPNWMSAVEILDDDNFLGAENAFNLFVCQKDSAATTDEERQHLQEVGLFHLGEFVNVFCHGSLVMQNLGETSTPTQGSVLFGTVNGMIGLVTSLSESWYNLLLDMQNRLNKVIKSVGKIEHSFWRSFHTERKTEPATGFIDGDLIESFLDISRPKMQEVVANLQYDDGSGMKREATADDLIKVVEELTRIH
Method: The target engagement assay for BTK or CRBN was from Promega (BTK kit, Cat. No. N2500; CRBN kit, Cat. No. CS1810C136) and was performed according to the manufacture’s instruction with some modifications. […] After 2 h incubation, the 3X Nano-Glo® Substrate with NanoLuc® extracellular inhibitor were added to cells and developed for 3 min at room temperature. BRET signals were collected using a BioTek SYNERGY H1 microplate reader equipped with a 450/80-nm BP filter for donor emission and a 610-nm LP filter for acceptor emission. BRET Ratio was calculated with the equation: [(Acceptor sample/Donor sample)–(Acceptor no tracer control/Donor no tracer control)] × 1000. The IC50 of the compound against its BTK or CRBN tracer was calculated using GraphPad Prism software.

MOLM-14 cells = assay: AlamarBlue cell viability assay, MOLM-14; details: for Cell viability, MOML-14: Supplementary Figure 7, replicates
Method: The IC50 was calculated using GraphPad Prism software with a four-parameter dose-response curve fit.

BTK [1] = target: T2, BTK (Homo sapiens, UniProt Q06187); assay: BTK degradation in MOLM-14 cells (western blot); format: cell-based; parameters: endogenous in cells; host or cells: MOLM-14; details: MOLM-14 cells, 200 nM, 24 h incubation
T2 sequence (Q06187 whole entry): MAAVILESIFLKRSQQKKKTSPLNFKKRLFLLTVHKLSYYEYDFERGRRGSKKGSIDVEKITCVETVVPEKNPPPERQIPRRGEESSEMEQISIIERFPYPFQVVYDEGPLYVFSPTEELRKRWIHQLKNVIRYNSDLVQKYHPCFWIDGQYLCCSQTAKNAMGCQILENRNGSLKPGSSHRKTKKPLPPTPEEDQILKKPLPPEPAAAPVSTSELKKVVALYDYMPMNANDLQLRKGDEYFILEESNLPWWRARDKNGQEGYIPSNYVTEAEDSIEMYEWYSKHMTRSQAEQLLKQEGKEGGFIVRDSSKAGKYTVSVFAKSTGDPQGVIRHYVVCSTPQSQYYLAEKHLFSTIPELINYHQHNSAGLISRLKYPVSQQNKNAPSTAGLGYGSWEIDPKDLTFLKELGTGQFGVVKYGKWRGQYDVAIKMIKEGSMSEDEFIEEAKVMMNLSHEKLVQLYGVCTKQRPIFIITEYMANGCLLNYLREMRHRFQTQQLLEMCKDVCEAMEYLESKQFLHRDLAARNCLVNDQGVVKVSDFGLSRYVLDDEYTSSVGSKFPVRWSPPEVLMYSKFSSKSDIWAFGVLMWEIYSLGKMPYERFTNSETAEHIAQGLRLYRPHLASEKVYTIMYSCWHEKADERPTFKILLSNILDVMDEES

BTK [2] = target: T2, BTK; assay: In vitro BTK kinase assay (PhosphoSens); format: biochemical; parameters: purchased SignalChem B10-10H-10
Method: BTK kinase activity inhibition IC50 was measured by PhosphoSens® Kinase Assay Kit (Assay Quant Technologies Inc., Cat.# CSKS-AQT0101K). […] Active recombinant BTK was purchased from SignalChem (Cat.# B10-10H-10). All the drugs (3 warhead control and 4 PROTACs) were dissolved in DMSO (10 mM). […] To calculate the IC50, subtract the background fluorescence determined with the “no kinase” control for each time point from the total signal to obtain corrected Relative Fluorescence Units (RFU) values. Plot the corrected RFU vs. Time for each inhibitor concentration and determine the initial reaction rates (slope of the linear portion) for each progress curve for each inhibitor concentration. Then plot velocity (RFU corrected/minute) vs [inhibitor] and determine the IC50 using a 4-parameter logistic fit.

Row | NanoBRET(%) (NanoLuc-CRBN fusion; drug concentration 1.00E-05 M) | NanoBRET(%) (NanoLuc-CRBN fusion; drug concentration 1.60E-08 M) | NanoBRET(%) (NanoLuc-CRBN fusion; drug concentration 2.00E-06 M) | NanoBRET(%) (NanoLuc-CRBN fusion; drug concentration 3.20E-09 M) | NanoBRET(%) (NanoLuc-CRBN fusion; drug concentration 4.00E-07 M) | NanoBRET(%) (NanoLuc-CRBN fusion; drug concentration 8.00E-08 M) | IC50 (NanoLuc-CRBN fusion) | Degradation at 200 nM (percentage of BTK degradation) (BTK [1]) | SMILES | Cell viability, MOML-14 (MOLM-14 cells; drug concentration 1.00E-05 M) | Cell viability, MOML-14 (MOLM-14 cells; drug concentration 1.60E-08 M) | Cell viability, MOML-14 (MOLM-14 cells; drug concentration 2.00E-06 M) | Cell viability, MOML-14 (MOLM-14 cells; drug concentration 3.20E-09 M) | Cell viability, MOML-14 (MOLM-14 cells; drug concentration 4.00E-07 M) | Cell viability, MOML-14 (MOLM-14 cells; drug concentration 6.40E-10 M) | Cell viability, MOML-14 (MOLM-14 cells; drug concentration 8.00E-08 M) | other results
1 | 33.2279% and 26.4905% and 27.0048% | 92.7988% and 108.391% and 111.382% | 38.4699% and 38.0091% and 38.2395% | 129.579% and 139.696% and 92.9737% | 76.4349% and 76.1877% and 65.5306% | 100.627% and 103.984% and 84.3671% | 1500 nM | – | CCCNc1nc(Nc2ccc(C#N)cc2)ncc1C#CCCCNC(=O)[C@H](C)N(C)C(=O)/C=C/CN(C)CCCNC(=O)CCNc1cccc2c1C(=O)N(C1CCC(=O)NC1=O)C2=O (stereo partly shown) [IRC-FLT3] | – | – | – | – | – | – | – | –
2 | – | – | – | – | – | – | – | 49% | CN(CCCCNC(=O)CNc1cccc2c1C(=O)N(C1CCC(=O)NC1=O)C2=O)C(C)(C)C=C(C#N)C(=O)N1CCC[C@@H](n2nc(-c3ccc(Oc4ccccc4)cc3)c3c(N)ncnc32)C1 (stereo partly shown) [RC-2] | 1.939 (2×) and 0.9797 and 1.263 and 1.918 | 109.825 and 84.2418 and 85.8907 and 118.518 and 93.8319 | 9.2521 and 10.1835 and 11.1012 and 14.0541 and 10.0041 | 91.1619 and 67.352 and 96.5641 and 78.9913 and 73.6029 | 67.2416 and 67.0208 and 59.4522 and 60.425 and 58.2103 | 98.0682 and 96.9022 and 102.332 and 130.626 and 104.719 | 92.8384 and 69.3183 and 103.532 and 88.8644 and 89.4508 | –
3 | – | – | – | – | – | – | – | 39% | CN(CCOCCNC(=O)CNc1cccc2c1C(=O)N(C1CCC(=O)NC1=O)C2=O)C(C)(C)C=C(C#N)C(=O)N1CCC[C@@H](n2nc(-c3ccc(Oc4ccccc4)cc3)c3c(N)ncnc32)C1 (stereo partly shown) [RC-3] | 6.131 and 2.152 and 5.745 and 1.563 and 5.644 | 83.11 and 86.5611 and 70.0365 and 75.0101 and 88.6317 | 14.9208 and 11.551 and 11.6931 and 9.785 and 11.754 | 76.8575 and 93.7881 and 76.4921 and 85.0995 and 82.1762 | 53.106 and 44.4377 and 39.7686 and 41.149 and 48.4166 | 89.9919 and 78.9687 and 69.3463 and 82.7852 and 87.4746 | 71.5794 and 85.3634 and 65.8344 and 81.7296 and 79.4965 | –
4 | – | – | – | – | – | – | – | 43% | CN(CCOCCOCCNC(=O)CNc1cccc2c1C(=O)N(C1CCC(=O)NC1=O)C2=O)C(C)(C)C=C(C#N)C(=O)N1CCC[C@@H](n2nc(-c3ccc(Oc4ccccc4)cc3)c3c(N)ncnc32)C1 (stereo partly shown) [RC-4] | 7.995 and 4.587 and 6.948 and 0.6662 and 4.873 | 106.917 and 98.9797 and 102.749 and 88.7772 and 88.111 | 23.0509 and 25.7918 and 22.8415 and 19.1107 and 18.6919 | 98.1803 and 95.5954 and 92.3367 and 95.7248 and 84.8751 | 68.7719 and 62.8902 and 62.3953 and 62.1669 and 56.6088 | 92.8506 and 90.1858 and 94.6399 and 97.7806 and 77.071 | 89.7861 and 80.8588 and 84.9703 and 89.1389 and 65.2315 | –
5 | – | – | – | – | – | – | – | 56% | CN(CCOCCOCCOCCNC(=O)CNc1cccc2c1C(=O)N(C1CCC(=O)NC1=O)C2=O)C(C)(C)C=C(C#N)C(=O)N1CCCC(n2nc(-c3ccc(Oc4ccccc4)cc3)c3c(N)ncnc32)C1 (stereo not shown) [RC-5] | 1.391 and 1.373 and 1.5492 and 0.5927 and 1.848 | 74.2327 and 92.4124 and 92.4946 and 100.939 and 90.3468 | 10.6332 and 11.0087 and 14.6588 and 13.2797 and 19.9049 | 91.6026 and 96.0448 and 87.3775 and 99.3838 and 93.8853 | 64.738 and 68.3352 and 96.2033 and 70.0311 and 76.4802 | 101.496 and 98.8968 and 89.2553 and 98.5858 and 94.7773 | 91.7317 and 86.3095 and 87.3482 and 74.3794 and 93.7562 | –
6 | – | – | – | – | – | – | – | 6% | CN(CCCCNc1cccc2c1C(=O)N(C1CCC(=O)NC1=O)C2=O)C(C)(C)C=C(C#N)C(=O)N1CCCC(n2nc(-c3ccc(Oc4ccccc4)cc3)c3c(N)ncnc32)C1 (stereo not shown) [RC-7] | 14.5806 and 18.8166 and 13.8981 and 12.7996 and 18.6335 | 91.6861 and 127.114 and 140.005 and 143.301 and 145.198 | 29.6105 and 35.3113 and 28.8948 and 32.5316 and 40.9787 | 108.289 and 119.541 and 122.853 and 118.675 and 131.225 | 92.6182 and 112.666 and 109.446 and 93.7916 and 129.078 | 104.877 and 113.673 and 115.995 and 128.978 and 91.4031 | 94.8735 and 136.951 and 131.242 and 108.447 and 144.149 | –
7 | – | – | – | – | – | – | – | 15% | CN(CCCNc1cccc2c1C(=O)N(C1CCC(=O)NC1=O)C2=O)C(C)(C)C=C(C#N)C(=O)N1CCCC(n2nc(-c3ccc(Oc4ccccc4)cc3)c3c(N)ncnc32)C1 (stereo not shown) [RC-8] | 17.5563 and 16.7069 and 17.8914 and 20.4239 and 19.1771 | 123.954 and 125.216 and 128.45 and 118.008 and 115.826 | 51.2117 and 59.1288 and 59.5652 and 52.2481 and 61.4899 | 109.039 and 133.593 and 120.962 and 127.936 and 128.38 | 97.748 and 111.696 and 131.871 and 99.439 and 92.5349 | 132.113 and 115.156 and 99.1818 and 117.969 and 130.757 | 116.239 and 126.011 and 117.112 and 106.966 and 122.419 | –
8 | 35.9991% and 14.2807% and 25.1399% | 91.6727% and 89.8569% and 90.7648% | 22.2416% and 18.9083% and 40.0723% | 100.385% and 96.7751% and 101.754% | 38.0473% and 34.6413% and 45.5817% | 64.8551% and 66.5991% and 71.8605% | 300 nM | – | CCCNc1nc(Nc2ccc(C#N)cc2)ncc1C#CCCCNC(=O)[C@H](C)N(C)C(=O)/C(C#N)=C/C(C)(C)N(C)CCCNC(=O)CCNc1cccc2c1C(=O)N(C1CCC(=O)NC1=O)C2=O (stereo partly shown) [RC-FLT3] | – | – | – | – | – | – | – | –
9 | – | – | – | – | – | – | – | – | CCC(=O)N1CCCC(n2nc(-c3ccc(Oc4ccccc4)cc3)c3c(N)ncnc32)C1 (stereo not shown) [RNC-Ctrl] | 9.88 and 4.549 and 8.014 and 2.825 and 3.518 | 95.1882 and 83.3008 and 72.3018 and 73.7944 and 64.519 | 23.8281 and 18.1065 and 24.6633 and 17.9289 and 14.3751 | 99.7903 and 102.278 and 76.2998 and 63.1686 and 63.4529 | 54.0886 and 58.7263 and 56.6474 and 49.4687 and 44.0492 | 93.8377 and 115.463 and 71.822 and 77.5792 and 66.4558 | 94.9216 and 79.4804 and 66.9 and 56.8073 and 62.3334 | IC50 (BTK [2]): 13.6 nM; activity at 12.8 pM (BTK [2]; Supplementary Figure 5, drug concentration 12.8 pM, replicates, read-out: Inhibition(%)): 94.1%; activity at 64 pM (BTK [2]; Supplementary Figure 5, drug concentration 64 pM, replicates, read-out: Inhibition(%)): 94%; activity at 0.00032 µM (BTK [2]; Supplementary Figure 5, drug concentration 320 pM, replicates, read-out: Inhibition(%)): 92.7%; activity at 0.0016 µM (BTK [2]; Supplementary Figure 5, drug concentration 1600 pM, replicates, read-out: Inhibition(%)): 83.1%; activity at 0.008 µM (BTK [2]; Supplementary Figure 5, drug concentration 8000 pM, replicates, read-out: Inhibition(%)): 62.4%; activity at 0.04 µM (BTK [2]; Supplementary Figure 5, drug concentration 40000 pM, replicates, read-out: Inhibition(%)): 29.6%; activity at 0.2 µM (BTK [2]; Supplementary Figure 5, drug concentration 200000 pM, replicates, read-out: Inhibition(%)): 9.18%; activity at 1 µM (BTK [2]; Supplementary Figure 5, drug concentration 1000000 pM, replicates, read-out: Inhibition(%)): 3.99%; reduction of BTK inhibition activity compared with IRC-Ctrl (BTK [2]; ratio of IC50 values): 45 folds; activity at 2.56 pM (BTK [2]; read-out: Inhibition(%), Supplementary Figure 5, drug concentration 2.56 pM, replicates): 110%; IC50 (MOLM-14 cells; Homo sapiens, MOLM-14, 72 h, read-out: Cell viability IC50): 420 nM
10 | 48.4243% and 48.1518% and 48.288% | 120.01% and 113.24% and 126.78% | 97.5318% and 86.9073% and 76.2828% | 100.446% and 106.017% | 98.4352% and 83.544% and 119.955% | 117.071% and 115.752% and 114.432% | 10100 nM | – | CCCNc1nc(Nc2ccc(C#N)cc2)ncc1C#CCCCNC(=O)[C@H](C)N(C)C(=O)CCCN(C)CCCNC(=O)CCNc1cccc2c1C(=O)N(C1CCC(=O)NC1=O)C2=O (stereo partly shown) [RNC-FLT3] | – | – | – | – | – | – | – | –
